The source of these data is patent publication US8759073B2, “Method for effectively controlling harmful organisms in large-scale culture of microalgae” (ENN Science & Technology Development Co., Ltd., priority 2009, dated 2014).

SMILES strings stand for the structures.

The subject of series [1] is Oxyrrhis. Nature of the series: Control of Oxyrrhis contamination in microalgae culture, microscope examination. It is filed as cell-based, Oxyrrhis sp. From the text: If the contaminated alga liquid is identified as acid tolerant contamination, pH value is raised up with alkalis in the culture system of the microalgae and maintained for a period of time. The pH value cannot be higher than the maximal tolerable pH of the microalgae. […] In an embodiment, said alkali can be ammonia. In an embodiment, said alkali can be NaOH. In an embodiment, said alkali can be 1M NaOH. Depending on different pH requirements and different culture systems, alkalis with different concentrations can be used according to the agitation condition, as long as the transient pH is not too high to be harmful to microalgae, and dilution of the cell concentration in the culture system (caused by adding too much alkali solution) should also be avoided. […] In an embodiment, the pH of the culture system is adjusted to 11.5-12.0 with 1M NaOH or 1M ammonia. In an embodiment, the pH of the culture system is adjusted to 11.0-11.8 or 8.0-11.0 with 1M NaOH or 1M ammonia. In an embodiment, the pH of the culture system is adjusted to 8.0-11.0, 11.5-12.0 or 11.0-11.8 and maintained for 3 hours.
Microscope examination is always used as one of the bases for determining the growth status in the process of microalgae culture.
(§1) Chlorella sp. (purchased from FACHB collection, Wuhan Aquatic Research Institure, Chinses Academy of Sciences) was cultured in a 320 L bubbling reactor (manufactured by Longfang Jiangchuan plexiglass Co. Ltd., φ300 mm×2 m) out-of-doors under a sunlight film. The culture condition included: a temperature of about 25 °C, a humidity of 60%-80%, and an illumination of 8000-20000 lux. Modified SM (see Table 2) (pH 7.0-9.0 for the normal culture) was used. […] Then, CO2 was aerated to adjust pH to be 7.0-8.0.
(§2) Chlorella sp. (obtained from Jinan University) was cultured in a 320 L bubbling reactor (manufactured by Longfang Jiangchuan plexiglass Co. Ltd., φ300 mm×2 m) out-of-doors under a sunlight film (with a temperature of about 25 °C, a humidity of 60%-80%, and an illumination of 8000-20000 lux). Modified SM medium (see Table 2) was used. When Amoeba, Oxyrrhis and ciliate contaminations were observed is with an oil immersion lens (Nikon fluorescent invert microscope Ti series), pH was adjusted to 11.0-11.8 with 1M NaOH. […] Then, CO2 was aerated continuously to saturation (pH 5.6). […] Then air was sufficiently aerated.
(§3) Chlorococcum sp. (obtained from Qingdao Marine Institute) was cultured in a 60 L glass plate reactor (manufactured by Longfang Jiangchuan plexiglass Co. Ltd., OP=10 cm) under a sunlight film (with a temperature of about 25 °C, a humidity of 60%-80%, and an illumination of 8000-20000 lux) (pH 8.0-9.0 for the normal culture). Modified BG11 medium (see Table 3) was used. […] Then CO2 was aerated and pH was adjusted to 7.0-8.0.
(§4) Chlorococcum sp. (obtained from Qingdao Marine Institute) was cultured in a 60 L glass plate reactor (manufactured by Longfang Jiangchuan plexiglass Co. Ltd., OP=10 cm) under a sunlight film (with a temperature of about 25 °C, a humidity of 60%-80%, and an illumination of 8000-20000 lux) (pH 8.0-9.0 for the normal culture). Modified BG11 medium (see Table 3) was used. […] One hour later, CO2 was aerated to saturation (about pH 5.6) for 24 hour continuously. […] Then air was sufficiently aerated.

Series [2] relates to Spirulina maxima. Nature of the series: Growth of cultured algae after treatment, 500 L raceway pond. It is filed as cell-based. Conditions: Example 15; pH adjusted with 1M ammonia. How it is done: Modified SM (see Table 2) was used. […] Then air was sufficiently aerated. Twenty-four hours later, the algae could resume to grow.
Modified SM (see Table 2) was used. […] One hour later, CO2 was aerated to saturation for 23 hour continuously (about pH 5.8). […] Then air was sufficiently aerated. Twenty-four hours later, the algae could resume to grow.

In series [3] the test system is Chlorella sp. Kind of series: Growth of cultured algae after treatment, 320 L bubbling reactor. Conditions: for algae growth compared with adjusting pH with NaOH: pH adjusted with 1M ammonia. How it is done: (§5) pH of the normally cultured microalgae is adjusted into various ranges. The growth rate of the microalgae is measured and their appearance is observed under a microscope.
as §1
Chlorella sp. (purchased from FACHB collection, Wuhan Aquatic Research Institure, Chinses Academy of Sciences) was cultured in a 320 L bubbling reactor (manufactured by Longfang Jiangchuan plexiglass Co. Ltd., φ300 mm×2 m) out-of-doors under a sunlight film. Modified SM medium (see Table 2) (pH 7.0-9.0 for the normal culture) was used. The culture condition included: a temperature of about 25 °C, a humidity of 60%-80%, and an illumination of 8000-20000 lux. […] Then air was sufficiently aerated, and pH was raised to 7.0-7.5 after 4 hours.
as §2
Chlorella sp. (purchased from FACHB collection, Wuhan Aquatic Research Institure, Chinses Academy of Sciences) was cultured in a 320 L bubbling reactor (manufactured by Longfang Jiangchuan plexiglass Co. Ltd., φ300 mm×2 m) out-of-doors under a sunlight film. Modified SM medium (see Table 2) (pH 7.0-9.0 for the normal culture) was used. The culture condition included: a temperature of about 25 °C, a humidity of 60%-80%, and an illumination of 8000-20000 lux. […] Then CO2 was aerated and pH was adjusted to 7.0-8.0.
Chlorella sp. (obtained from Jinan University) was cultured in a 320 L bubbling reactor (manufactured by Longfang Jiangchuan plexiglass Co. Ltd., φ300 mm×2 m) out-of-doors under a sunlight film (with a temperature of about 25 °C, a humidity of 60%-80%, and an illumination of 8000-20000 lux). Modified SM medium (see Table 2) was used. […] Then CO2 was aerated to saturation (pH 5.6) for 24 hours continuously. […] Then air was sufficiently aerated.

For series [4], the system named is Chlorococcum sp. Kind of series: Growth of cultured algae after treatment, 60 L glass plate reactor. The following applies: for algae growth compared with adjusting pH with NaOH: pH adjusted with 1M ammonia. How it is done: as §5
Chlorococcum sp. (obtained from Qingdao Marine Institute) was cultured (pH 8.0-9.0 for the normal culture) in a 60 L glass plate reactor (manufactured by Longfang Jiangchuan plexiglass Co. Ltd., OP=10 cm) under a sunlight film (with a temperature of about 25 °C, a humidity of 60%-80%, and an illumination of 8000-20000 lux). Modified BG11 medium (see Table 3) was used. […] CO2 was aerated continuously. […] Then air was sufficiently aerated, and pH was raised to 7.0-8.0 in 4 hours.
as §3, §4
Chlorococcum sp. (obtained from Qingdao Marine Institute) was cultured in a 60 L glass plate reactor (manufactured by Longfang Jiangchuan plexiglass Co. Ltd., OP=10 cm) under a sunlight film (with a temperature of about 25 °C, a humidity of 60%-80%, and an illumination of 8000-20000 lux) (pH 8.0-9.0 for the normal culture). Modified BG11 medium (see Table 3) was used. […] Then air was sufficiently aerated.
as §3
Chlorococcum sp. (obtained from Qingdao Marine Institute) was cultured in a 60 L glass plate reactor (manufactured by Longfang Jiangchuan plexiglass Co. Ltd., OP=10 cm) under a sunlight film (with a temperature of about 25 °C, a humidity of 60%-80%, and an illumination of 8000-20000 lux) (pH 8.0-9.0 for the normal culture). Modified BG11 medium (see Table 3) was used.

Take `[Na+].[OH-]` [1M NaOH, NaOH]: the “Oxyrrhis, result of microscope examination” value in series [1] (Example 2, Chlorella sp. culture, pH 11.0-11.8 with 1M NaOH, three hours) is listed as “almost no Oxyrrhis”; in series [1] (Example 4, Chlorella sp. culture, mixed contamination, pH 11.0-11.8 with 1M NaOH, one hour) it was “essentially inactivated”; in series [1] (Example 6, Chlorococcum sp. culture, pH 11.5-12.0 with 1M NaOH, three hours) it was “almost no Oxyrrhis”; in series [1] (Example 7, Chlorococcum sp. culture, mixed contamination, pH 11.5-12.0 with 1M NaOH), “essentially inactivated”.
Consider `N` [1M ammonia, ammonia], for which the “algae growth compared with adjusting pH with NaOH” value in series [2], in series [3] (Example 11), in series [3] (Example 12), in series [4] (Example 13) and in series [4] (Example 14) was “clearly grew better” each time. Moreover, the “time until algae started to grow” value in series [3] (Example 11, pH 8.0 with 1M ammonia 3 h, then CO2 to pH 7.0-8.0) stood at 18 h; in series [4] (Example 13, pH 10.0 with 1M ammonia 3 h, then CO2 to pH 7.0-8.0), 18 h. In addition, the “Oxyrrhis, result of microscope examination” value was “almost no Oxyrrhis was observed” in series [1] (Example 11, Chlorella sp. culture, pH 8.0 with 1M ammonia, three hours); “lost its activity essentially” in series [1] (Example 12, Chlorella sp. culture, mixed contamination, pH 9.0 with 1M ammonia, one hour); “almost no Oxyrrhis” in series [1] (Example 13, Chlorococcum sp. culture, pH 10.0 with 1M ammonia, three hours); “inactivated essentially” in series [1] (Example 14, Chlorococcum sp. culture, mixed contamination, pH 9.0 with 1M ammonia).
